Experimental findings from US11066369B2, “N-(pyridin-2-yl)pyridine-sulfonamide derivatives and their use in the treatment of disease” (Novartis AG, priority 2016, dated 2021) are described below.

Assay [1] addresses T1, horseradish peroxidase (HRP) tagged delF508-CFTR (Homo sapiens, UniProt P13569, DEL508-508).
T1 construct: expressed in transfected cells
In words: Measurement of delF508-CFTR-HRP surface expression in CFBE41o- cells.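 As to DelF508-CFTR-HRP Amax %: percent efficacy relative to reference corrector lumacaftor.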 It counts as cell-based. The note with it: delF508-CFTR-HRP surface expression, CFBE41o- cells; for EC50: read-out: DelF508-CFTR-HRP EC50; for Emax: read-out: DelF508-CFTR-HRP Amax %. Summed up:
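CFBE41o- bronchial epithelial cells stably expressing delF508-CFTR with HRP in the fourth extracellular loop; expression induced 48h with 500 ng/mL doxycycline, then compounds added (top 10 μM, 10-point 3-fold series, ≤0.5% DMSO) for 24h at 37° C. Surface HRP measured by luminescence with cell-impermeant substrate; EC50 from logistic fit of triplicates, plate-normalized to lowest concentration; efficacy also relative to a reference corrector.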

The target in assay [2] is T2, delF508-CFTR (Homo sapiens, UniProt P13569, DEL508-508).
T2 construct: functional activity of the CFTR channel (Chloride ion transport) in patient derived primary human bronchial epithelial cells; host or cells: patient-derived primary human bronchial epithelial cells (delF508-CFTR)
T2 sequence (P13569 with tags, fused parts or gaps DEL508-508): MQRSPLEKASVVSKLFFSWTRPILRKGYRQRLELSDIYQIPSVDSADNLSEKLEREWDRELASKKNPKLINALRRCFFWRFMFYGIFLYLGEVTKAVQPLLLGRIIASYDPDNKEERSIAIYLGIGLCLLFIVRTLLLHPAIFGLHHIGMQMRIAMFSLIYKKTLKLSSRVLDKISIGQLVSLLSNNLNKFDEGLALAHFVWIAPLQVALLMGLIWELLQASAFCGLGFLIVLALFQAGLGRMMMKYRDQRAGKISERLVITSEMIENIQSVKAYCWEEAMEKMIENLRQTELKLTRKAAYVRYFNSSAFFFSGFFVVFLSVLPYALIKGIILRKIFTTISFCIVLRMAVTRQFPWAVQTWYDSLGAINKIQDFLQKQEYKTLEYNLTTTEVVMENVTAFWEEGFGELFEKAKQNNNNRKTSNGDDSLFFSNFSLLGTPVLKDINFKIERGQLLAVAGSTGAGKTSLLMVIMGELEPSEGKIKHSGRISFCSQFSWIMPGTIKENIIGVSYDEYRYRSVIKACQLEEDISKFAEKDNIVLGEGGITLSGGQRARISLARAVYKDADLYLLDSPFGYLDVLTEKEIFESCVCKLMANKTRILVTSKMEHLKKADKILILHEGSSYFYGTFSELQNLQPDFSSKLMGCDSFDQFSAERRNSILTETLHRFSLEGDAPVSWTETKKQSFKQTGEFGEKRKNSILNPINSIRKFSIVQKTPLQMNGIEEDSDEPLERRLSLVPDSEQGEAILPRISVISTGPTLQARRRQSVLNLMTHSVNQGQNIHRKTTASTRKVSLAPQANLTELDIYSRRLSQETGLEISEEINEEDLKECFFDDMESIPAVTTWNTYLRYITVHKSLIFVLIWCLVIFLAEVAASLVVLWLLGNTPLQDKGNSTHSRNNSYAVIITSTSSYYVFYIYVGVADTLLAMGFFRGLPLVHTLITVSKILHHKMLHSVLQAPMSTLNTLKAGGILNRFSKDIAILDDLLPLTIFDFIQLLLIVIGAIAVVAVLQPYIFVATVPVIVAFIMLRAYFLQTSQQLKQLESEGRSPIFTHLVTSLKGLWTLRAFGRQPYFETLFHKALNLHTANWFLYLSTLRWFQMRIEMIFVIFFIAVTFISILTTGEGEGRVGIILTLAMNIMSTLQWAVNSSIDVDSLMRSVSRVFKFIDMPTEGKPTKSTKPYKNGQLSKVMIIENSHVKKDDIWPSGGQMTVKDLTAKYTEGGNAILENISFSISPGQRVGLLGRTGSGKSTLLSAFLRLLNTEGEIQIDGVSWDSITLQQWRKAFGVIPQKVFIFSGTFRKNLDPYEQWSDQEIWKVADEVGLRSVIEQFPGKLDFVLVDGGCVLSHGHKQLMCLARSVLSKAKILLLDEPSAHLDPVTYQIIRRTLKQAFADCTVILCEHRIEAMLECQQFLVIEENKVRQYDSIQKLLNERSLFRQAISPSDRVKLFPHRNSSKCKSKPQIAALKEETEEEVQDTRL
In words: Measurement of delF508-CFTR functional activity in primary human bronchial epithelial cells (HBECs) using Multi-Transepithelial Clamp Circuit (MTECC-24) assay. It counts as cell-based. The note with it: primary CF HBECs; for MTECC24 CFHBEC- Amax %: test compound added 24h before assay plus potentiator, relative to reference combination (2 μM corrector + 0.5 μM potentiator); for EC50: test compound added 24h before assay, in the presence of potentiator, mean of at least two replicates, read-out: MTECC24 CFHBEC- EC50. Summed up: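 Patient-derived primary delF508-CFTR HBECs, differentiated at air-liquid interface ~2 weeks, treated basolaterally with compound for 24 h, then apical and basolateral compound in HEPES pH 7.4 assay medium. Equivalent short-circuit current (Ieq) recorded on MTECC-24 with sequential amiloride, forskolin, potentiator and INH-172; normalized to 0.1% DMSO, EC50 from curve fit.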

T1 sequence (P13569 with tags, fused parts or gaps DEL508-508): as above

By EC50 is commonly meant the concentration giving half of the maximal effect. Regarding `Cc1ccc(F)cc1-c1nc(NS(=O)(=O)c2cccc(N3CCCC(C)(C(=O)O)C3)n2)ccc1C(F)(F)F` (centres unmarked) [Example 361, 1-(6-{[6-(5-fluoro-2-methylphenyl)-5-(trifluoromethyl)pyridin-2-yl]sulfamoyl}pyridin-2-yl)-3-methylpiperidine-3-carboxylic Acid], the 50% effective concentration (EC50) in assay [1] came out at 2.08 µM. For the same compound, in assay [2], the “MTECC24 CFHBEC- Amax %” value was found to be 51.9% and the EC50 turned out to be 0.0113 µM.

`Cc1c(F)cccc1-c1nc(NS(=O)(=O)c2cccc(N3CCCC(C)(C(=O)O)C3)n2)ccc1C(F)(F)F` (centres unmarked) [Example 362, 1-(6-{[6-(3-fluoro-2-methylphenyl)-5-(trifluoromethyl)pyridin-2-yl]sulfamoyl}pyridin-2-yl)-3-methylpiperidine-3-carboxylic Acid]: the EC50 in assay [1] turned out to be 2 µM. Also, in assay [2], the “MTECC24 CFHBEC- Amax %” value is recorded as 77.9% and the half-maximal effective concentration (EC50) came out at 0.000533 µM.

Take `O=C(O)[C@@H]1CCCN(c2cccc(S(=O)(=O)Nc3ccc(C(F)(F)F)c(-c4ccccc4C4CCC4)n3)n2)C1` [Example 366, (R)-1-(6-(N-(6-(2-cyclobutylphenyl)-5-(trifluoromethyl)pyridin-2-yl)sulfamoyl)pyridin-2-yl)piperidine-3-carboxylic Acid]: the concentration for a half-maximal effect (EC50) in assay [1] was determined as 1.34 µM. Besides, in assay [2], the “MTECC24 CFHBEC- Amax %” value is on record as 66.9% and the concentration for a half-maximal effect (EC50) stood at 0.000797 µM.

Consider `O=C(O)[C@H]1CCCN(c2cccc(S(=O)(=O)Nc3ccc(C(F)(F)F)c(-c4ccccc4C4CCC4)n3)n2)C1` [Example 367, (S)-1-(6-(N-(6-(2-cyclobutylphenyl)-5-(trifluoromethyl)pyridin-2-yl)sulfamoyl)pyridin-2-yl)piperidine-3-carboxylic Acid], for which, in assay [1], the Emax came to 809% and the 50% effective concentration (EC50) was determined as 0.928 µM. In addition, in assay [2], the “MTECC24 CFHBEC- Amax %” value is given as 91.2% and the concentration giving a half-maximal response (EC50) came out at 0.0014 µM.

With `CC1(C(=O)O)CCCN(c2cccc(S(=O)(=O)Nc3ccc(C(F)(F)F)c(-c4ccccc4C4CCC4)n3)n2)C1` (centres unmarked) [Example 368, 1-(6-(N-(6-(2-cyclobutylphenyl)-5-(trifluoromethyl)pyridin-2-yl)sulfamoyl)pyridin-2-yl)-3-methylpiperidine-3-carboxylic Acid], the EC50 in assay [1] was found to be 0.671 µM. For the same compound, in assay [2], the “MTECC24 CFHBEC- Amax %” value came to 66.2% and the EC50 amounted to 0.000152 µM.

Take `CCc1ccccc1-c1nc(NS(=O)(=O)c2cccc(N3CCC[C@H](C(=O)O)C3)n2)ccc1C(F)(F)F` [Example 370, (S)-1-(6-(N-(6-(2-ethylphenyl)-5-(trifluoromethyl)pyridin-2-yl)sulfamoyl)pyridin-2-yl)piperidine-3-carboxylic Acid]: in assay [1], the Emax came out at 601% and the concentration giving a half-maximal response (EC50) is 1.47 µM. In addition, in assay [2], the “MTECC24 CFHBEC- Amax %” value was 105.9% and the EC50 came to 0.00085 µM.

In the case of `CCc1ccccc1-c1nc(NS(=O)(=O)c2cccc(N3CCCC(C)(C(=O)O)C3)n2)ccc1C(F)(F)F` (centres unmarked) [Example 371, 1-(6-(N-(6-(2-ethylphenyl)-5-(trifluoromethyl)pyridin-2-yl)sulfamoyl)pyridin-2-yl)-3-methylpiperidine-3-carboxylic Acid], in assay [1], the Emax is 962% and the EC50 was determined as 1.13 µM. Moreover, in assay [2], the “MTECC24 CFHBEC- Amax %” value was 254.3% and the half-maximal effective concentration (EC50) amounted to 0.00197 µM.

Turning to `C[C@]1(C(=O)O)CCCN(c2cccc(S(=O)(=O)Nc3ccc(C(F)(F)F)c(-c4ccccc4C4CCC4)n3)n2)C1` [Example 373, (S)-1-(6-(N-(6-(2-cyclobutylphenyl)-5-(trifluoromethyl)pyridin-2-yl)sulfamoyl)pyridin-2-yl)-3-methylpiperidine-3-carboxylic Acid], in assay [1], the Emax was 367% and the 50% effective concentration (EC50) was found to be 0.273 µM. In assay [2], the “MTECC24 CFHBEC- Amax %” value worked out at 93.1% and the concentration for a half-maximal effect (EC50) was determined as 0.00117 µM.

Take `CCc1ccccc1-c1nc(NS(=O)(=O)c2ccnc(N3CCC(C)(C(=O)O)CC3)c2)ccc1C(F)(F)F` [Example 374, 1-(4-(N-(6-(2-ethylphenyl)-5-(trifluoromethyl)pyridin-2-yl)sulfamoyl)pyridin-2-yl)-4-methylpiperidine-4-carboxylic Acid]: in assay [1], the Emax worked out at 233% and the concentration giving a half-maximal response (EC50) is 2.78 µM. Besides, in assay [2], the “MTECC24 CFHBEC- Amax %” value amounted to 39.8% and the concentration giving a half-maximal response (EC50) was 0.133 µM.

Turning to `CC(C)c1ccccc1-c1nc(NS(=O)(=O)c2cccc(N3CCC[C@@H](C(=O)O)C3)n2)ccc1C(F)(F)F` [Example 375, (R)-1-(6-(N-(6-(2-isopropylphenyl)-5-(trifluoromethyl)pyridin-2-yl)sulfamoyl)pyridin-2-yl)piperidine-3-carboxylic Acid], the 50% effective concentration (EC50) in assay [1] amounted to 1.21 µM; in assay [2], 0.000682 µM. Moreover, in assay [2], the “MTECC24 CFHBEC- Amax %” value was found to be 63.5%.
